Experimental data from ChEMBL document CHEMBL4420071, “Method for treating skin with retinoids and retinoid boosters” (2013).

Key:
[1] = species: Rattus norvegicus; experiment: Activation of retinol dehydrogenase in Sprague-Dawley rat liver microsomes assessed as increase in enzyme activity at 100 uM using all-trans retinol and NADP by HPLC analysis relative to control
[2] = species: Homo sapiens; experiment: Inhibition of transglutaminase in human keratinocytes assessed as mean transglutaminase activity level at 8.2 10^-8M in presence of 10 uM retinal relative to retinal alone; assay type: cell-based; parameters: scale not given: the % may be the effect or the level left
[3] = species: Homo sapiens; experiment: Inhibition of transglutaminase in human keratinocytes assessed as mean transglutaminase activity level at 1 10^-5M in presence of 10 uM retinal relative to retinal alone; assay type: cell-based; parameters: scale not given: the % may be the effect or the level left
[4] = species: Homo sapiens; experiment: Inhibition of transglutaminase in human keratinocytes assessed as mean transglutaminase activity level at 1.1 10^-6M in presence of 10 uM retinal relative to retinal alone; assay type: cell-based; parameters: scale not given: the % may be the effect or the level left
[5] = species: Homo sapiens; experiment: Inhibition of transglutaminase in human keratinocytes assessed as mean transglutaminase activity level at 4.1 10^-8M in presence of 10 uM retinal relative to retinal alone; assay type: cell-based; parameters: scale not given: the % may be the effect or the level left
[6] = species: Homo sapiens; experiment: Inhibition of transglutaminase in human keratinocytes assessed as mean transglutaminase activity level at 3.3 10^-6M in presence of 10 uM retinal relative to retinal alone; assay type: cell-based; parameters: scale not given: the % may be the effect or the level left
[7] = species: Homo sapiens; experiment: Inhibition of transglutaminase in human keratinocytes assessed as mean transglutaminase activity level at 3 10^-5M in presence of 10 uM retinal relative to retinal alone; assay type: cell-based; parameters: scale not given: the % may be the effect or the level left
[8] = species: Homo sapiens; experiment: Inhibition of transglutaminase in human keratinocytes assessed as mean transglutaminase activity level at 1.23 10^-7M in presence of 10 uM retinal relative to retinal alone; assay type: cell-based; parameters: scale not given: the % may be the effect or the level left
[9] = species: Homo sapiens; experiment: Inhibition of transglutaminase in human keratinocytes assessed as mean transglutaminase activity level at 3.73 10^-7M in presence of 10 uM retinal relative to retinal alone; assay type: cell-based; parameters: scale not given: the % may be the effect or the level left
[10] = species: Homo sapiens; experiment: Inhibition of transglutaminase in human keratinocytes assessed as mean transglutaminase activity level at 1.65 10^-9M in presence of 10 uM retinal relative to retinal alone; assay type: cell-based; parameters: scale not given: the % may be the effect or the level left
[11] = species: Homo sapiens; experiment: Inhibition of transglutaminase in human keratinocytes assessed as mean transglutaminase activity level at 9.0 10^-3M in presence of 10 uM retinal relative to retinal alone; assay type: cell-based; parameters: scale not given: the % may be the effect or the level left
[12] = species: Homo sapiens; experiment: Inhibition of transglutaminase in human keratinocytes assessed as mean transglutaminase activity level at 3.73 10^-4M in presence of 10 uM retinal relative to retinal alone; assay type: cell-based; parameters: scale not given: the % may be the effect or the level left
[13] = species: Homo sapiens; experiment: Inhibition of transglutaminase in human keratinocytes assessed as mean transglutaminase activity level at 1.0 10^-3M in presence of 10 uM retinal relative to retinal alone; assay type: cell-based; parameters: scale not given: the % may be the effect or the level left
[14] = species: Homo sapiens; experiment: Inhibition of transglutaminase in human keratinocytes assessed as mean transglutaminase activity level at 3.29 10^-7M in presence of 10 uM retinal relative to retinal alone; assay type: cell-based; parameters: scale not given: the % may be the effect or the level left
[15] = species: Homo sapiens
[16] = species: Homo sapiens; experiment: Inhibition of transglutaminase in human keratinocytes assessed as mean transglutaminase activity level at 8.2 10^-6M in presence of 10 uM retinal relative to retinal alone; assay type: cell-based; parameters: scale not given: the % may be the effect or the level left
[17] = species: Homo sapiens; experiment: Inhibition of transglutaminase in human keratinocytes assessed as mean transglutaminase activity level at 1.23 10^-5M in presence of 10 uM retinal relative to retinal alone; assay type: cell-based; parameters: scale not given: the % may be the effect or the level left
[18] = species: Homo sapiens; experiment: Inhibition of transglutaminase in human keratinocytes assessed as mean transglutaminase activity level at 3.0 10^-3M in presence of 10 uM retinal relative to retinal alone; assay type: cell-based; parameters: scale not given: the % may be the effect or the level left
[19] = species: Rattus norvegicus; experiment: Inhibition of retinal reductase in Sprague-Dawley rat liver microsomes at 100 uM using all-trans retinaldehyde and NADPH by HPLC analysis relative to control
[20] = species: Homo sapiens; experiment: Inhibition of transglutaminase in human keratinocytes assessed as mean transglutaminase activity level at 1.1 10^-4M in presence of 10 uM retinal relative to retinal alone; assay type: cell-based; parameters: scale not given: the % may be the effect or the level left
[21] = species: Homo sapiens; experiment: Inhibition of transglutaminase in human keratinocytes assessed as mean transglutaminase activity level at 4.1 10^-5M in presence of 10 uM retinal relative to retinal alone; assay type: cell-based; parameters: scale not given: the % may be the effect or the level left
[22] = species: Homo sapiens; experiment: Inhibition of transglutaminase in human keratinocytes assessed as mean transglutaminase activity level at 1.65 10^-7M in presence of 10 uM retinal relative to retinal alone; assay type: cell-based; parameters: scale not given: the % may be the effect or the level left
[23] = species: Homo sapiens; experiment: Inhibition of transglutaminase in human keratinocytes assessed as mean transglutaminase activity level at 1.2 10^-8M in presence of 10 uM retinal relative to retinal alone; assay type: cell-based; parameters: scale not given: the % may be the effect or the level left
[24] = species: Homo sapiens; experiment: Inhibition of transglutaminase in human keratinocytes assessed as mean transglutaminase activity level at 6 10^-8M in presence of 10 uM retinal relative to retinal alone; assay type: cell-based; parameters: scale not given: the % may be the effect or the level left
[25] = species: Homo sapiens; experiment: Inhibition of transglutaminase in human keratinocytes assessed as mean transglutaminase activity level at 4.4 10^-5M in presence of 10 uM retinal relative to retinal alone; assay type: cell-based; parameters: scale not given: the % may be the effect or the level left
[26] = species: Homo sapiens; experiment: Inhibition of transglutaminase in human keratinocytes assessed as mean transglutaminase activity level at 1.8 10^-7M in presence of 10 uM retinal relative to retinal alone; assay type: cell-based; parameters: scale not given: the % may be the effect or the level left
[27] = species: Homo sapiens; experiment: Inhibition of transglutaminase in human keratinocytes assessed as mean transglutaminase activity level at 5.43 10^-7M in presence of 10 uM retinal relative to retinal alone; assay type: cell-based; parameters: scale not given: the % may be the effect or the level left
[28] = species: Homo sapiens; experiment: Inhibition of transglutaminase in human keratinocytes assessed as mean transglutaminase activity level at 2.4 10^-9M in presence of 10 uM retinal relative to retinal alone; assay type: cell-based; parameters: scale not given: the % may be the effect or the level left
[29] = species: Homo sapiens; experiment: Inhibition of transglutaminase in human keratinocytes assessed as mean transglutaminase activity level at 1.47 10^-5M in presence of 10 uM retinal relative to retinal alone; assay type: cell-based; parameters: scale not given: the % may be the effect or the level left
[30] = species: Homo sapiens; experiment: Inhibition of transglutaminase in human keratinocytes assessed as mean transglutaminase activity level at 4.89 10^-6M in presence of 10 uM retinal relative to retinal alone; assay type: cell-based; parameters: scale not given: the % may be the effect or the level left
[31] = species: Homo sapiens; experiment: Inhibition of transglutaminase in human keratinocytes assessed as mean transglutaminase activity level at 1.63 10^-6M in presence of 10 uM retinal relative to retinal alone; assay type: cell-based; parameters: scale not given: the % may be the effect or the level left
[32] = target: T1, Diacylglycerol O-acyltransferase 1 (Bos taurus) (UniProt Q8MK44); conditions: at 100 µM;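 also: ARAT activity in bovine RPE microsomes with retinol as substrate and dilauroyl phosphatidylcholine present, 5 min incubation, HPLC readout, inhibition expressed versus control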
T1 sequence (whole entry): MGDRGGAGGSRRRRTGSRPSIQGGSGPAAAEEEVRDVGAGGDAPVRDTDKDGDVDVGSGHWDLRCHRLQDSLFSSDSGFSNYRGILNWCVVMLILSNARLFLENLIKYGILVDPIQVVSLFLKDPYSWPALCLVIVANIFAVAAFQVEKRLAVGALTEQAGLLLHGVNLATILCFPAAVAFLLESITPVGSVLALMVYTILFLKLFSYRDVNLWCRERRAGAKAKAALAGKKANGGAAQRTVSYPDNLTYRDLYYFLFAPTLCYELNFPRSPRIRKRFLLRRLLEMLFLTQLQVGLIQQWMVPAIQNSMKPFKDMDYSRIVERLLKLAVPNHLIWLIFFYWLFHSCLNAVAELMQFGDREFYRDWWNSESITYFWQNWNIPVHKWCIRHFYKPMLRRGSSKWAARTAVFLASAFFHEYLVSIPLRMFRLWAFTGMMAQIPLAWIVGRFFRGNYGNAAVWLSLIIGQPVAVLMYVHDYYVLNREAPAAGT
Description: Inhibition of ARAT in bovine RPE microsomes at 100 uM using retinol substrate in presence of dilauroyl-phosphatidyl choline incubated for 5 mins by HPLC analysis relative to control

[33] = species: Homo sapiens; experiment: Inhibition of transglutaminase in human keratinocytes in presence of retinal relative to retinal alone; assay type: cell-based; conditions: concentration not given here
[34] = target: T2, Lecithin retinol acyltransferase (Bos taurus) (UniProt Q9BGL2); conditions: at 100 µM;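 also: bovine retinal pigment epithelium microsomes given retinol plus palmitoyl-CoA, 5 min reaction, ester formation read by HPLC, inhibition expressed versus untreated control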
T2 sequence (whole entry): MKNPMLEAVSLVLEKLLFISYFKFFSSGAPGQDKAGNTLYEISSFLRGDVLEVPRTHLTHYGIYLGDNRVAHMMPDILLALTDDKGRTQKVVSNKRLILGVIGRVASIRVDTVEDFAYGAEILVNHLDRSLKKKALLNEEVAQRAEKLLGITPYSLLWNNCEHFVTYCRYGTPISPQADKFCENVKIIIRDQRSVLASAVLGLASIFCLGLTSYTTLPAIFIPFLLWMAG
Description: Inhibition of LRAT in bovine RPE microsomes at 100 uM using retinol substrate in presence of Palmitoyl-CoA incubated for 5 mins by HPLC analysis relative to control

Row | Activity [11] [%] | Activity [12] [%] | Activity [13] [%] | Activity [14] [%] | Activity [16] [%] | Activity [17] [%] | Activity [18] [%] | inhibition [19] [%] | Activity [20] [%] | Activity [21] [%] | Activity [22] [%] | SMILES | Activity [1] [%] | IC20 [15] | further results
1 | – | – | – | – | – | – | – | – | – | – | – | CCCCCCCC/C=C\CCCCCCCCCCCCCC(=O)N[C@@H](COP(=O)([O-])OCC[N+](C)(C)C)[C@H](O)/C=C/CCCCCCCCCCCCC | 26 | – | Activity [2]: 115%; Activity [3]: 77.8%; Activity [4]: 98.8%; Activity [5]: 74.6%; Activity [6]: 76.4%; Activity [7]: 45%; Activity [8]: 70%; Activity [9]: 91.6%; Activity [10]: 68.4%
2 | -6 | 79.2 | -16.4 | 60.2 | 146 | 62.6 | 0.1 | 62 | 4.4 | 76.8 | 106 | CCCCC/C=C\C/C=C\CCCCCCCC(=O)O | – | 8.95 ×10⁻⁵ M | –
3 | – | – | – | – | – | – | – | – | – | – | – | CCCCCCCC/C=C\CCCCCCCC(=O)OC[C@H](COP(=O)([O-])OCC[N+](C)(C)C)OC(=O)CCCCCCCCCCCCCCC | 21 | – | Activity [23]: 159%; Activity [24]: 87.8%; Activity [25]: 90.9%; Activity [26]: 75.9%; Activity [27]: 86.7%; Activity [28]: 85.5%; Activity [29]: 120%; Activity [30]: 70.1%; Activity [31]: 98.8%
4 | -11 | 68 | -7.5 | 98 | 119 | 94.9 | -5.7 | 54 | -23 | 65.9 | 77 | CC/C=C\C/C=C\C/C=C\CCCCCCCC(=O)O | – | 1.21 ×10⁻⁴ M | –
5 | – | – | – | – | – | – | – | – | – | – | – | CCCCCCCCCCCC(=O)NCCO | – | – | inhibition [32]: 13%; inhibition [33]: 11%; inhibition [34]: 34%
